Test results: PubChem BioAssay AID248 (DTP/NCI, 2004)
Inconclusive results and toxic doses are left out.

Test system: L1210 leukemia ip in BDF1 mice, survival T/C
Assay: NCI In Vivo Anticancer Drug Screen. Data for tumor model L1210 Leukemia (intraperitoneal) in B6D2F1 (BDF1) mice
Conditions: endpoint: mean survival time, higher = longer survival
In short: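 Transplantable tumor model; survival measured in treated vs vehicle control mice. Value = treated/control.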

[1] = dose: 100.0 mg/kg/injection, schedule: Q01DX009 (ip), vehicle: Klucel (hydroxypropylcellulose) (HPC)
[2] = dose: 100.0 mg/kg/injection, schedule: Q04DX003 (ip), vehicle: Klucel (hydroxypropylcellulose) (HPC)
[3] = dose: 200.0 mg/kg/injection, schedule: Q01DX009 (ip), vehicle: Klucel (hydroxypropylcellulose) (HPC)
[4] = dose: 200.0 mg/kg/injection, schedule: Q04DX003 (ip), vehicle: Klucel (hydroxypropylcellulose) (HPC)
[5] = dose: 400.0 mg/kg/injection, schedule: Q01DX009 (ip), vehicle: Klucel (hydroxypropylcellulose) (HPC)
[6] = dose: 400.0 mg/kg/injection, schedule: Q04DX003 (ip), vehicle: Klucel (hydroxypropylcellulose) (HPC)
[7] = dose: 12.5 mg/kg/injection, schedule: Q01DX009 (ip), vehicle: saline
[8] = dose: 25.0 mg/kg/injection, schedule: Q01DX009 (ip), vehicle: saline
[9] = dose: 100.0 mg/kg/injection, schedule: Q04DX003 (ip), vehicle: saline
[10] = dose: 200.0 mg/kg/injection, schedule: Q04DX003 (ip), vehicle: saline
[11] = dose: 400.0 mg/kg/injection, schedule: Q04DX003 (ip), vehicle: saline
[12] = dose: 100.0 mg/kg/injection, schedule: Q01DX001 (ip), vehicle: saline
[13] = dose: 200.0 mg/kg/injection, schedule: Q01DX001 (ip), vehicle: saline
[14] = dose: 400.0 mg/kg/injection, schedule: Q01DX001 (ip), vehicle: saline
[15] = dose: 100.0 mg/kg/injection, schedule: Q04DX003 (ip), vehicle: saline with Tween-80
[16] = dose: 200.0 mg/kg/injection, schedule: Q04DX003 (ip), vehicle: saline with Tween-80
[17] = dose: 400.0 mg/kg/injection, schedule: Q04DX003 (ip), vehicle: saline with Tween-80
[18] = dose: 100.0 mg/kg/injection, schedule: Q04DX002 (ip), vehicle: saline
[19] = dose: 200.0 mg/kg/injection, schedule: Q04DX002 (ip), vehicle: saline
[20] = dose: 100.0 mg/kg/injection, schedule: Q01DX009 (ip), vehicle: saline
[21] = dose: 200.0 mg/kg/injection, schedule: Q01DX009 (ip), vehicle: saline
[22] = dose: 400.0 mg/kg/injection, schedule: Q01DX009 (ip), vehicle: saline

For O=C(COc1cc(Cl)cc(Cl)c1)NCc1ccc(Cl)cc1, the T/C [1] was 91 % of control, the T/C [2] was 95 % of control and the T/C [3] was 88 % of control. For the same compound, the T/C [4] was 95 % of control, the T/C [5] was 95 % of control and the T/C [6] was 88 % of control.

In the case of CCOc1ccccc1NC(=O)Nc1ccccc1, the T/C [1] is reported as 92 % of control, the T/C [2] is reported as 95 % of control and the T/C [3] is reported as 96 % of control. For the same compound, the T/C [4] was 109 % of control, the T/C [5] was 91 % of control and the T/C [6] was 98 % of control.

With O=C(COc1ccccc1)Oc1c(Cl)c(Cl)c(Cl)c(Cl)c1Cl the T/C (dose: 100.0 mg/kg/injection, schedule: Q01DX001 (ip), vehicle: Klucel (hydroxypropylcellulose) (HPC)) was 96 % of control, the T/C [2] was 103 % of control and the T/C (dose: 200.0 mg/kg/injection, schedule: Q01DX001 (ip), vehicle: Klucel (hydroxypropylcellulose) (HPC)) was 92 % of control. The T/C [4] was 103 % of control, the T/C (dose: 400.0 mg/kg/injection, schedule: Q01DX001 (ip), vehicle: Klucel (hydroxypropylcellulose) (HPC)) was 98 % of control and the T/C [6] was 95 % of control.

CSCCC(C#N)(CCN(C)C)c1ccccc1 (configuration not stated) was tested, and the T/C (dose: 25.0 mg/kg/injection, schedule: Q01DX009 (ip), vehicle: other) was 102 % of control, the T/C (dose: 50.0 mg/kg/injection, schedule: Q01DX009 (ip), vehicle: other) was 98 % of control and the T/C (dose: 100.0 mg/kg/injection, schedule: Q01DX009 (ip), vehicle: other) was 91 % of control. For the same compound, the T/C (dose: 100.0 mg/kg/injection, schedule: Q01DX009 (ip), vehicle: saline with Tween-80) was 97 % of control, the T/C [2] was 96 % of control and the T/C [4] was 98 % of control.

With COC(=O)C1C(O)C(C)C(O)C(C)/C=C\C=C(C)C(=O)Nc2c(C)c(OC(C)=O)c3c(c2O)C(=O)C(C)=C2OCOC(=C23)C(C)=CC(C)(O)C(O)C(C)C1O (configuration not stated) the T/C (dose: 100.0 mg/kg/injection, schedule: Q04DX002 (ip), vehicle: Klucel (hydroxypropylcellulose) (HPC)) was 104 % of control, the T/C (dose: 200.0 mg/kg/injection, schedule: Q04DX002 (ip), vehicle: Klucel (hydroxypropylcellulose) (HPC)) was 101 % of control and the T/C (dose: 400.0 mg/kg/injection, schedule: Q04DX002 (ip), vehicle: Klucel (hydroxypropylcellulose) (HPC)) was 90 % of control.

O=C(O)COc1ccc(OCC(=O)O)cc1 was tested, and the T/C [1] was 97 % of control, the T/C [2] was 95 % of control and the T/C [3] was 89 % of control. For the same compound, the T/C [4] was 95 % of control, the T/C [5] was 89 % of control and the T/C [6] was 92 % of control.

In the case of Nc1ncnc2c1ncn2CCCCCl, the T/C (dose: 12.0 mg/kg/injection, schedule: Q04DX003 (ip), vehicle: saline) is reported as 93 % of control, the T/C [7] is reported as 119 % of control and the T/C [8] is reported as 97 % of control. The T/C (dose: 25.0 mg/kg/injection, schedule: Q04DX003 (ip), vehicle: saline) was 107 % of control, the T/C (dose: 50.0 mg/kg/injection, schedule: Q01DX009 (ip), vehicle: saline) was 106 % of control and the T/C (dose: 50.0 mg/kg/injection, schedule: Q04DX003 (ip), vehicle: saline) was 93 % of control.

Cc1nc(N)[nH]c(=O)c1CCCOc1ccccc1 was tested, and the T/C (dose: 50.0 mg/kg/injection, schedule: Q01DX Z (ip), vehicle: carboxymethylcellulose (CMC)) was 95 % of control, the T/C (dose: 100.0 mg/kg/injection, schedule: Q01DX Z (ip), vehicle: carboxymethylcellulose (CMC)) was 93 % of control and the T/C (dose: 200.0 mg/kg/injection, schedule: Q01DX Z (ip), vehicle: carboxymethylcellulose (CMC)) was 93 % of control. The T/C (dose: 400.0 mg/kg/injection, schedule: Q01DX Z (ip), vehicle: carboxymethylcellulose (CMC)) was 93 % of control.

With CC1CNC(=O)N1 (configuration not stated) the T/C [9] was 102 % of control, the T/C [10] was 101 % of control and the T/C (dose: 222.0 mg/kg/injection, schedule: Q01DX Z (ip), vehicle: saline) was 97 % of control. For the same compound, the T/C (dose: 333.0 mg/kg/injection, schedule: Q01DX Z (ip), vehicle: saline) was 111 % of control, the T/C [11] was 96 % of control and the T/C (dose: 500.0 mg/kg/injection, schedule: Q01DX Z (ip), vehicle: saline) was 103 % of control.

Nc1ncnc2c1nc1n2C2OC(CO)C(O)C2O1 (configuration not stated) was tested, and the T/C [12] was 111 % of control, the T/C [13] was 109 % of control and the T/C [14] was 111 % of control.

For Cc1ccn(C)c(=O)c1, the T/C [9] was 105 % of control, the T/C [10] was 103 % of control and the T/C [11] was 102 % of control.

In the case of NC(=O)/C(=C\c1ccncc1)c1cccc2ccccc12, the T/C [1] is reported as 97 % of control, the T/C [15] is reported as 108 % of control and the T/C [3] is reported as 97 % of control. For the same compound, the T/C [16] was 88 % of control.

With CC1CCC(C2=CSC3CCCCC3N2)C(C)C1 (configuration not stated) the T/C (dose: 100.0 mg/kg/injection, schedule: Q04DX002 (ip), vehicle: other) was 111 % of control, the T/C (dose: 200.0 mg/kg/injection, schedule: Q04DX002 (ip), vehicle: other) was 101 % of control and the T/C (dose: 400.0 mg/kg/injection, schedule: Q04DX002 (ip), vehicle: other) was 97 % of control.

In the case of CCOc1ccc(/C=N/Nc2c3ccccc3nc3ccccc23)cc1OCC, the T/C [12] is reported as 92 % of control and the T/C [13] is reported as 95 % of control.

In the case of COc1cc2c3c(c1)/C(=N\NC(N)=O)CCN3CCC2, the T/C [2] is reported as 98 % of control, the T/C [4] is reported as 103 % of control and the T/C [6] is reported as 108 % of control.

In the case of CC/C=C(\CCC)CCCC, the T/C (dose: 100.0 mg/kg/injection, schedule: Q04DX002 (ip), vehicle: saline with Tween-80) is reported as 94 % of control, the T/C (dose: 200.0 mg/kg/injection, schedule: Q04DX002 (ip), vehicle: saline with Tween-80) is reported as 97 % of control and the T/C (dose: 400.0 mg/kg/injection, schedule: Q04DX002 (ip), vehicle: saline with Tween-80) is reported as 94 % of control.

For CCn1c(CC(O)(C(F)(F)F)C(F)(F)F)nc2ccccc21, the T/C [15] was 101 % of control, the T/C [16] was 98 % of control and the T/C [17] was 101 % of control.

In the case of CCOC(=O)C(C(=O)OCC)c1cc(Cl)nnc1Cl, the T/C [18] is reported as 91 % of control and the T/C [19] is reported as 91 % of control.

For Cc1ccc(C(C)(CCC(=O)O)c2ccc(C)o2)o1, the T/C [15] was 96 % of control, the T/C [16] was 96 % of control and the T/C [17] was 95 % of control.

With CC(N)(CCCN)C(=O)O (configuration not stated) the T/C [20] was 102 % of control, the T/C [9] was 104 % of control and the T/C [21] was 102 % of control. For the same compound, the T/C [10] was 102 % of control, the T/C [22] was 94 % of control and the T/C [11] was 101 % of control.

Cc1ccc(S(=O)(=O)N/N=C2/C3CC4C(C3)C24)cc1 was tested, and the T/C [12] was 90 % of control, the T/C [13] was 88 % of control and the T/C [21] was 92 % of control. The T/C [14] was 103 % of control.

For [Cl][Pt+2][Cl].[NH-]CC1CCCC[N-]1 (configuration not stated), the T/C (dose: 3.13 mg/kg/injection, schedule: Q04DX003 (ip), vehicle: saline) was 111 % of control, the T/C (dose: 6.25 mg/kg/injection, schedule: Q04DX003 (ip), vehicle: saline) was 108 % of control and the T/C (dose: 12.5 mg/kg/injection, schedule: Q04DX003 (ip), vehicle: saline) was 122 % of control. For the same compound, the T/C [9] was 163 % of control and the T/C [10] was 120 % of control.

In the case of CCC(Br)Cc1ccccc1 (configuration not stated), the T/C (dose: 2.0 mg/kg/injection, schedule: Q01DX015 (ip), vehicle: saline) is reported as 91 % of control, the T/C (dose: 4.0 mg/kg/injection, schedule: Q01DX015 (ip), vehicle: saline) is reported as 91 % of control and the T/C (dose: 8.0 mg/kg/injection, schedule: Q01DX015 (ip), vehicle: saline) is reported as 91 % of control. For the same compound, the T/C (dose: 16.0 mg/kg/injection, schedule: Q01DX015 (ip), vehicle: saline) was 95 % of control.

With CCN(CC)C(=O)c1ccccc1C(=O)O the T/C [1] was 94 % of control, the T/C [3] was 92 % of control and the T/C [5] was 92 % of control.

With Cc1c(C(=O)O)no[n+]1[O-] the T/C [18] was 104 % of control, the T/C [19] was 95 % of control and the T/C (dose: 400.0 mg/kg/injection, schedule: Q04DX002 (ip), vehicle: saline) was 87 % of control.

With CC1(C2CC2)NC(=O)NC1=O (configuration not stated) the T/C [20] was 97 % of control, the T/C [9] was 92 % of control and the T/C [21] was 89 % of control. The T/C [10] was 97 % of control, the T/C [22] was 95 % of control and the T/C [11] was 95 % of control.

For CCC(CC)CCCC(C)Nc1ccnc2cc(Cl)ccc12 (configuration not stated), the T/C (dose: 6.25 mg/kg/injection, schedule: Q01DX009 (ip), vehicle: saline) was 101 % of control, the T/C [7] was 98 % of control and the T/C [8] was 95 % of control.
